Assay results reported in US8153773B2, “Synthesis and use of anti-reverse phosphorothioate analogs of the messenger RNA cap” (Board of Supervisors of Louisiana State University and …, priority 2007, dated 2012).

What was measured:
murine eIF4E (28-217) = molecular target: T1, murine eIF4E (28-217) (Mus musculus, UniProt P63073); assay: Binding affinities for eIF4E by fluorescence quenching; set-up: Cap - eIF4E KAS: unit not given here; conditions: for ΔG°: binding free energy calculated from KAS; for ΔG° / KAS: murine eIF4E (28-217); for Cap - eIF4E KAS / KAS: equilibrium association constant; for Cap - eIF4E KAS: mouse eIF4E (amino acids 28-217), 20° C.; for KAS: fluorescence quenching; for affinity for eIF4E (KAS) relative to m2^7,2′-OGpppG: fold higher than the parent ARCA; for affinity for eIF4E (KAS) of D1 relative to D2 diastereomer: fold higher than the D2 member
T1 construct: (28-217) to phosphorothioate cap analogs, as determined
Experimental: Binding affinities of S analogs for murine eIF4E were determined by fluorescence quenching. Fluorescence titration measurements were carried out on an LS-50B spectrofluorometer (Perkin Elmer Co.) in 50 mM HEPES/KOH (pH 7.2), 100 mM KCl, 0.5 mM EDTA, 1 mM DTT at 20.0±0.2° C. Aliquots of 1 μl increasing concentration of cap analogue solutions were added to 1.4 ml of […] solutions. Fluorescence intensities (excitation at 280 nm with 2.5 nm bandwidth and detection at 337 nm with 4 nm bandwidth and 290 nm cut-off filter) were corrected taking into account sample dilution and the inner filter effect. Equilibrium association constants (KAS) were determined by fitting the theoretical dependence of the fluorescence intensity on the total concentration of cap analogue to the experimental data points according to equation described previously (See A. Niedzwiecka et al., “Biophysical studies of eIF4E cap-binding protein: recognition of mRNA 5′ cap structure and synthetic fragments of eIF4G and 4E-BP1 proteins,” J. Mol. Biol., vol. 319, pp. 615-635 (2002)). The concentration of protein was fitted as a free parameter of equilibrium equation showing amount of “active” protein. The final KAS was calculated as a weighted average of three to ten independent titrations, with the weights taken as the reciprocals of the numerical standard deviations squared. Numerical nonlinear least-squares regression analysis was performed using ORGIN 6.0 (Microcal Software Inc., USA). The Gibbs free energy of binding was calculated from the KAS value according to the standard equation ΔG°=−RTlnKAS.

HC11 cells = assay: Translational efficiency of capped luciferase mRNA in HC11 cells; format: cell-based, mouse; conditions: Luc-A60 mRNA capped with the analog in HC11 cells, relative to m^7Gp3G-capped mRNA
Experimental: Two methods, electroporation and nucleoporation, were used to deliver RNA into cells. In case of electroporation, 5 μg of RNA were introduced into 10^7 HC11 cells in a total volume 400 μl of serum-reduced RPMI 1640 medium in a Gene pulser cuvette (4 mm gap) with a Bio-Rad Genepulser™ set at 0.22 kV and 960 μF. Following discharge, the cells were washed twice with PBS, centrifuged for 2 min 300×g at room temperature, resuspended in prewarmed complete medium, and placed at 37° C. Nucleoporation was performed with an Amaxa Nucleofector II (Amaxa Biosystems) in accordance with manufacture's recommendations. One microgram of RNA was introduced into 10^6 HC11 cells with Nucleofector Solution V and the set of recommended regimens (program T-024).
For measurement of translational efficiency, cells were divided into several Eppendorf tubes, placed in a water bath at 37° C., and shaken. For measurement of mRNA stability, cells were distributed into 35-mm cell culture dishes and placed at 37° C. in a 5% CO2 humidified atmosphere. Cells were harvested at various times and washed twice with PBS.
For cytoplasmic RNA extraction, 2×10^5 cells were lysed in 175 μl of lysis buffer (50 mM Tris-HCl, pH 8.0, 140 mM NaCl, 1.5 mM MgCl2, 0.5% (v/v) Igepal (Sigma), and 1 mM dithiothreitol). RNAs were further purified using the RNeasy mini kit. For protein extraction, 2×10^5 cells were lysed in 200 μl of Luciferase Cell Culture Lysis Reagent (Promega). Luciferase activity of cell extracts was measured according to the manufacturer's protocol (Promega).
We also determined the translational efficiency in cultured cells for luciferase mRNA capped with S-ARCAs. This involved two measurements conducted at various times following nucleoporation—luciferase activity measured by luminometry in cleared cell lysates, and Luc-A60 levels measured by real-time PCR. Luciferase activity was normalized by the amount of luciferase mRNA that had been delivered into cells. To determine the amount of RNA present in the cells at a time immediately after nucleoporation, i.e., before any decay had occurred, cells were harvested at various times between 2 to 8 h post-nucleoporation, and cytoplasmic RNA was extracted. The amount of luciferase mRNA was measured by real time PCR using primers that amplify sequences near the 5′-end. Luciferase mRNA remaining at each time point was plotted as log10 ([RNA]) versus time to determine t1/2. The curve was extrapolated to 0 h, and the amount of RNA delivered into the cells was calculated. We defined conditions under which the accumulation of luciferase was linear with time, after an initial lag period of ˜30 min for recruitment of mRNA to ribosomes, completing the first polypeptide chain, and release of luciferase into the cytosol.

T1 sequence (P63073 28-217): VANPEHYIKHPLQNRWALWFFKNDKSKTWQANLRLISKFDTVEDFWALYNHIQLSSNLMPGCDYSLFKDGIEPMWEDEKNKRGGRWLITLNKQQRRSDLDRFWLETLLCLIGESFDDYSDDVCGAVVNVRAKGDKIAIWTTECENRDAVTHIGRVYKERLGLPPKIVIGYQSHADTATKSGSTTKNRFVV

| Molecule | ΔG° (murine eIF4E (28-217)) | Cap - eIF4E KAS (murine eIF4E (28-217)) | KAS (murine eIF4E (28-217)) | Relative translational efficiency (HC11 cells) | affinity for eIF4E (KAS) relative to m2^7,2′-OGpppG (murine eIF4E (28-217)) | affinity for eIF4E (KAS) of D1 relative to D2 diastereomer (murine eIF4E (28-217)) | Relative translational efficiency (HC11 cells; listed as m2^7,2′-OGppSpG (D1)) | Relative translational efficiency (HC11 cells; listed as m2^7,2′-OGppspG (D1)) | Relative translational efficiency (HC11 cells; listed as m2^7,2′-OGppSpG (D2)) | Relative translational efficiency (HC11 cells; listed as m2^7,2′-OGppspG (D2)) |
| --- | --- | --- | --- | --- | --- | --- | --- | --- | --- | --- |
| CO[C@@H]1[C@H](O)[C@@H](COP(=O)(O)OP(=O)([O-])OP(=O)(O)OC[C@H]2O[C@@H](n3cnc4c(=O)[nH]c(N)nc43)[C@H](O)[C@@H]2O)O[C@H]1n1c[n+](C)c2c(O)nc(N)nc21 [m2^7,2′-OGpppG, reference compound] | -9.43 kcal/mol | 10.8 ± 0.3 | 10.8 ± 0.3 µM⁻¹ | 2.1 ± 0.2 | – | – | – | – | – | – |
| m2^7,2′-OGpppsG (D1) [Compound 4a] | -9.76 kcal/mol | 34.3 ± 1.3 | 19.2 ± 0.8 µM⁻¹ | 2.5 ± 0.8 | 3 fold | – | – | – | – | – |
| m2^7,2′-OGpppsG (D2) [Compound 4b] | -9.62 kcal/mol | 12.9 ± 0.9 | 15.0 ± 0.6 µM⁻¹ | 1.8 ± 0.4 | – | – | – | – | – | – |
| m2^7,2′-OGppspG (D1) [Compound 5a] | -10.23 ± 0.02 kcal/mol | 42.1 ± 1.6 | 43.1 ± 1.4 µM⁻¹ | – | – | 2 fold | 2.8 ± 0.3 | 2.8 | – | – |
| m2^7,2′-OGppspG (D2) [Compound 5b] | -9.77 kcal/mol | 18.3 ± 3.4 | 19.3 ± 2.2 µM⁻¹ | – | – | – | – | – | 5.1 ± 0.5 | 5.1 |
| m2^7,2′-OGpsppG (D1) [Compound 6a] | -10.12 kcal/mol | 19.3 ± 1.8 | 35.2 ± 1.1 µM⁻¹ | 2.0 ± 0.1 | 3 fold | 3 fold | – | – | – | – |
| m2^7,2′-OGpsppG (D2) [Compound 6b] | -9.53 kcal/mol | 15.4 ± 0.5 | 12.9 ± 0.4 µM⁻¹ | 1.9 ± 0.1 | – | – | – | – | – | – |
